# Assays:
# [1] = system: heterozygous A205V/A122T lines; assay: field phytotoxicity trial North Dakota 2006 (Example 3); format: in vivo, sunflower; settings: 200 g ai/ha of imazamox, 21 DAT
# Description: (§1) • Spray volume: 10 gallons per acre (GPA) (or 100 liters/ha) for backpack sprayer or 20 GPA (or 200 liters/ha) for tractor mounted boom • Growth Stage at Herbicide Application: 2-4 leaves • Entry 15 (WT Maintainer line) was left unsprayed in all treatment blocks.
# (§2) Phytotoxicity ratings were assessed at 7 and 21 days following herbicide application.
# (§3) The data was subjected to an ANOVA analysis and the means from the 3 repetitions are presented in Table 7 (phytotoxicity at 7 days post-treatment) and Table 8 (phytotoxicity at 21 days post-treatment).
# [2] = system: homozygous A122T/A122T lines; assay: as above; format: in vivo, sunflower; settings: 200 g ai/ha of imazamox, 21 DAT
# Description: as §1, §2, §3
# [3] = system: homozygous A205V/A205V lines; assay: as above; format: in vivo, sunflower; settings: 200 g ai/ha of imazamox, 21 DAT
# Description: as §1, §2, §3
# [4] = system: AHAS enzyme of WT line (B7); assay: AHAS enzyme activity assay, Sets 1 and 2; format: biochemical, sunflower; settings: 100 μM
# Description: (§4) Twelve greenhouse grown sunflower plants from each of the lines depicted in Table 21 were bulked and subjected to an AHAS enzyme activity assay via the method of Singh et al. (1988) Anal. Biochem. 171:173-179. Each activity assay was repeated twice. Due to the large number of samples, the experiment was split into two sets (Table 21).
# Young, actively growing leaves, from four week old plantlets, were ground in a mortar and pestle with liquid N2 and extracted with a buffer composed of 100 mM Pyruvate, 200 mM KH2PO4, 20 mM MgCl2, 2 mM thiamine pyrophosphate and […]. Plant extracts were then spun through a 10 mL Zeba™ TM desalt spin column (Pierce #89893) as per the manufacturer's recommendation. The inhibition assay was performed as described by Singh et al. (1988) Anal. Biochem. 171:173-179. Assays were conducted in a 96-well format. Fifty μl of inhibitor was added to each well containing 50 μl of soluble protein extract to give final concentrations of 0.78, 1.56, 3.125, 6.25, 12.5, 25, 50 and 100 μM imazamox or 0.78, 1.56, 3.125, 6.25, 12.5, 25, 50 and 100 μM imazapyr. Zero herbicide controls were also included for each line. […] Absorbance was measured at 530 nm. AHAS activity, expressed as the mean of the absorbance values for each treatment, was presented as a percentage of the mean of the zero-herbicide controls.
# [5] = system: AHAS enzyme of A122T heterozygous hybrid (cmsBTK47 × R731); assay: AHAS enzyme activity assay, Set 2; format: biochemical, sunflower; settings: Set 2 (FIG. 14)
# Description: as §4
# (§5) Young, actively growing leaves, from four week old plantlets, were ground in a mortar and pestle with liquid N2 and extracted with a buffer composed of 100 mM Pyruvate, 200 mM KH2PO4, 20 mM MgCl2, 2 mM thiamine pyrophosphate and […]. Plant extracts were then spun through a 10 mL Zeba™ TM desalt spin column (Pierce #89893) as per the manufacturer's recommendation. The inhibition assay was performed as described by Singh et al. (1988) Anal. Biochem. 171:173-179. Assays were conducted in a 96-well format. Fifty μl of inhibitor was added to each well containing 50 μl of soluble protein extract to give final concentrations of 0.78, 1.56, 3.125, 6.25, 12.5, 25, 50 and 100 μM imazamox or 0.78, 1.56, 3.125, 6.25, 12.5, 25, 50 and 100 μM imazapyr. Zero herbicide controls were also included for each line. Reactions were processed as outlined by Singh et al. (1988) Anal. Biochem. 171:173-179. Absorbance was measured at 530 nm. AHAS activity, expressed as the mean of the absorbance values for each treatment, was presented as a percentage of the mean of the zero-herbicide controls.
# [6] = system: AHAS enzyme of A122T homozygous (GM40); assay: AHAS enzyme activity assay, Set 2; format: biochemical, sunflower; settings: Set 2 (FIG. 14)
# Description: as §4, §5
# [7] = system: AHAS enzyme of A205V homozygous (B7imi, IMISUN1); assay: AHAS enzyme activity assay, Set 2; format: biochemical, sunflower; settings: Set 2 (FIG. 14)
# Description: as §4, §5
# [8] = system: heterozygous A205V entries; assay: field phytotoxicity trial North Dakota 2006 (Example 3); format: in vivo, sunflower; settings: 160 g ai/ha of imazapyr, 21 DAT
# Description: as §1, §2, §3
# [9] = system: sunflower hybrid H2 (L3*L4), 122/122; assay: field trial, imazapyr at V8 or R1 stage (Example 4); settings: H2 122/122
# [10] = system: sunflower hybrid H5 (L3 x WT), 122/Wild type; assay: as above; settings: H5 122/Wild type
# [11] = system: lines carrying at least one allele A122T (A122T/A122T, A122T/A205V, A122/WT); assay: as above; settings: 160 g ai/ha applied at R1; 14 DAT
# [12] = system: sunflower line HA445 (high oleic); assay: tolerance to imidazolinones, greenhouse (Example 8)
# [13] = system: sunflower line BTK112 (conventional); assay: as above
# [14] = 160 g ai/ha applied at R1, 14 DAT
# [15] = 160 g ai/ha applied at R1, 21 DAT
# [16] = 160 g ai/ha applied at V8, 14 DAT
# [17] = 160 g ai/ha applied at V8, 21 DAT
# [18] = 160 gr/ha at V4, fourteen days after treatment
smiles,measurement,setting,value
COCc1cnc(C2=NC(C)(C(C)C)C(=O)N2)c(C(=O)O)c1 (stereo not shown) [imazamox],phytotoxicity,[1],2-3%
same,phytotoxicity,[2],3-5%
same,phytotoxicity,[3],15-22%
same,"AHAS activity, % of untreated control",[4]; Set 1 (FIG. 13),17%
same,"AHAS activity, % of untreated control",[4]; Set 2 (FIG. 14),11%
same,"AHAS activity, % of untreated control",[5]; 50 μM,30%
same,"AHAS activity, % of untreated control",[5]; 100 μM,30%
same,"AHAS activity, % of untreated control",[6]; 50 μM,63%
same,"AHAS activity, % of untreated control",[6]; 100 μM,60%
same,"AHAS activity, % of untreated control",[7]; 50 μM,30%
same,"AHAS activity, % of untreated control",[7]; 100 μM,26%
CC(C)C1(C)N=C(c2ncccc2C(=O)O)NC1=O (stereo not shown) [imazapyr],phytotoxicity,[8],20-43%
same,Mean Phytotoxicity Index (0-50),[9]; [14],2.3
same,Mean Phytotoxicity Index (0-50),[9]; [15],1.7
same,Mean Phytotoxicity Index (0-50),[9]; [16],5
same,Mean Phytotoxicity Index (0-50),[9]; [17],1
same,Mean Phytotoxicity Index (0-50),[10]; [14],11.7
same,Mean Phytotoxicity Index (0-50),[10]; [15],23.3
same,Mean Phytotoxicity Index (0-50),[10]; [16],15
same,Mean Phytotoxicity Index (0-50),[10]; [17],5
same,"PI (0-50), group with chlorosis symptoms only",[11],less than 11.7
same,outcome of the herbicide treatment,[12]; 160 gr/ha at V4,killed
same,Mean Phytotoxicity Index (0-9),[12]; [18],8.8
same,outcome of the herbicide treatment,[13]; 160 gr/ha at V4,killed
same,Mean Phytotoxicity Index (0-9),[13]; [18],9
